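Interpolation was linear, between the two tested concentrations surrounding the appropriate level; five concentrations were tested over 48 hours in 96-well plates. TGI: total growth inhibition.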
Tests used:
Assay in all cases: NCI-60 cell line screen, 48 h
IGROV1 ovarian = system: IGROV1 ovarian
U251 CNS = system: U251 CNS
HT29 colon = system: HT29 colon
SR leukemia = system: SR leukemia
HCT-116 colon = system: HCT-116 colon
UACC-257 melanoma = system: UACC-257 melanoma
HOP-62 NSCLC = system: HOP-62 NSCLC
MOLT-4 leukemia = system: MOLT-4 leukemia
RXF 393 renal = system: RXF 393 renal
SN12C renal = system: SN12C renal
RPMI-8226 leukemia = system: RPMI-8226 leukemia
COLO 205 colon = system: COLO 205 colon
SNB-19 CNS = system: SNB-19 CNS
SK-OV-3 ovarian = system: SK-OV-3 ovarian
786-0 renal = system: 786-0 renal
CCRF-CEM leukemia = system: CCRF-CEM leukemia
LOX IMVI melanoma = system: LOX IMVI melanoma
HOP-92 NSCLC = system: HOP-92 NSCLC
T-47D breast = system: T-47D breast

Structure (SMILES)	TGI (IGROV1 ovarian) [µM]	TGI (U251 CNS) [µM]	TGI (HT29 colon) [µM]	TGI (SR leukemia) [µM]	TGI (HCT-116 colon) [µM]	TGI (UACC-257 melanoma) [µM]	TGI (HOP-62 NSCLC) [µM]	TGI (MOLT-4 leukemia) [µM]	TGI (RXF 393 renal) [µM]	TGI (SN12C renal) [µM]	TGI (RPMI-8226 leukemia) [µM]	TGI (COLO 205 colon) [µM]	TGI (SNB-19 CNS) [µM]	TGI (SK-OV-3 ovarian) [µM]	TGI (786-0 renal) [µM]	TGI (CCRF-CEM leukemia) [µM]	TGI (LOX IMVI melanoma) [µM]	TGI (HOP-92 NSCLC) [µM]	TGI (T-47D breast) [µM]
C[n+]1c2ccccc2c(NCC(=O)O)c2ccccc21	> 100	> 100	> 100	> 100	> 100	> 100	> 100	> 100	> 100	> 100	> 100	> 100	> 100	> 100	> 100				
Cc1c2n(c(=O)[nH]c1=O)C1OC(CO)C(O2)C1N=[N+]=[N-] (stereo not drawn)	> 100	> 100	> 100	> 100	> 100	> 100	> 100	> 100		> 100	> 100	> 100	> 100	> 100	> 100	> 100	> 100	> 100	
O=C1N(Cl)C(=O)C(c2ccc(Cl)cc2)(c2ccc(Cl)cc2)N1Cl	> 100	> 100	> 100	> 100	> 100			> 100	84.8	> 100	> 100	> 100	> 100	> 100	> 100	60.9		> 100	
CC1(C)CCc2ccc(OCCC(=O)O)cc2O1	> 100	> 100	> 100	> 100	> 100		> 100	> 100		> 100	> 100	> 100		> 100		> 100	> 100	> 100	
C/C(=C\CO)CC/C=C(\C)CNc1c(F)c(F)c(F)c(F)c1F	> 100	59.2	52.3	74.9	> 100	47.4	68	> 100	65.3	41.2	43.8	67.1	75	> 100	> 100	> 100	80.8		> 100
O=[N+]([O-])c1cccc2nc3ccccc3c(NCCCCNc3c4ccccc4nc4cccc([N+](=O)[O-])c34)c12	2.2	0.187	0.0366		0.0347	0.682	0.372	0.0887	0.117	0.38		0.173	0.152	1.69	0.0943	0.0892	0.258	0.0854	1.04
CCCCCCNC(=O)C(C)C1CCC2(C)C=CC(=O)C(C)=C2C1O (stereo not drawn)	> 100	> 100	> 100		> 100	> 100	> 100	> 100	> 100	> 100	> 100	> 100	> 100	> 100		> 100	> 100	> 100	
COc1cc(-c2ccc(Br)[nH]2)[nH]c1C=NCC(C)C	7.09	3.88	3.54		2.86	5.34	3.39	4.04		7.51	2.67	2.48		6.91	3.27	3.24		4.01	
S=C1NCCN1	> 100	> 100	> 100	> 100	> 100	> 100	> 100	> 100		> 100	> 100	> 100	> 100	> 100	> 100	> 100	> 100	> 100	
O=C1NC(N/N=C/c2ccccc2)=N/C1=C\c1ccco1	57.4	68.4	> 100		> 100	> 100	50.6	> 100	80.4	> 100	> 100	> 100	> 100	> 100	55.6	> 100		37.3	> 100
Cc1ccc(Nc2nc(=O)c3c4ccccc4n(C(=O)OC(C)(C)C)c3s2)cc1	> 100	> 100	> 100	44.9		> 100	64.1	> 100			48.7	> 100	> 100	> 100	38.5	> 100	46.7	> 100	> 100
COc1ccc2c(c1)CC[C@@H]1[C@@H]2CC[C@]2(C)C(=O)/C(=C/c3ccc(N(C)C)cc3)C[C@@H]12		> 100			> 100		44.8	> 100	87.2		> 100	> 100	> 100	> 100	80.7			69	> 100
